Results taken from patent US20240247021A1, “CRYSTAL FORMS OF KUDING SAPONIN A COMPOUND, PHARMACEUTICAL COMPOSITION AND USE THEREOF” (SHANGHAI KE PHARMACEUTICAL CO., LTD, priority 2021, published 2024).
Values belong to the compound of their own block, whether it stands above or below them.

How the values were obtained:
bronchial smooth muscle = test: Relaxation effect on bronchial smooth muscle (bronchial ring tension); set-up: species or system C57BL/6J mice; details: for Average percentage of tension relaxation: bronchial rings pre-constricted, 20 minutes after adding
Description: Firstly, Kudinoside A solutions with different concentrations were prepared: 0.3253 g of the crystal form A of the Kudinoside A obtained in Example 1 was dissolved in 1 mL of dimethyl sulfoxide (DMSO) to prepare a stock solution of the crystal form A of Kudinoside A, and then the stock solution was diluted in sequence with DMSO into solutions of the crystal form A of Kudinoside A at concentrations of 1 μM, 3.2 μM, 10 μM, and 32 μM.
Then, bronchial rings were prepared: C57BL/6J mice aged 6 weeks were killed by breaking the neck, left and right bronchi were taken out and subjected to bronchia dissection under a stereomicroscope, and the obtained left and right bronchi were cut into bronchial rings with a length of about 2 mm.
Furthermore, the tension of the bronchial ring was balanced: the bronchial ring was fixed with two metal wires and suspended in a water bath at 37° C. containing 5 mL of balanced salt solution (Kreb solution), and a mixed gas containing 5% of carbon dioxide and 95% of oxygen was continuously introduced; then the tension of the bronchial ring was balanced using a tension transducer and re-balanced after pre-stimulation with 60 mM potassium chloride.
Finally, determination of the airway tension and drug administration were performed: the instrument was calibrated, and the detection system was zeroed; a tension value A was recorded when the tension of the mouse was stable; 5 μL of 10 mM […] was added to 5 mL of Kreb solution to make the final concentration to be 10 μM, and 5 μL of each of the solutions of the crystal form A of Kudinoside A at different concentrations (1 μM, 3.2 μM, 10 μM, and 32 μM) was added separately when the constriction tension of the bronchial ring reached the peak; the change of the bronchial tension was observed and recorded, and the percentage of the airway tension relaxation was calculated, as shown in Table 22. The average tension value 1 minute before adding the solution of Kudinoside A is recorded as B, the average tension value 20 minutes after adding Kudinoside A is recorded as C, and the percentage of airway tension relaxation is (B−C)/(B−A).

[1] = tested on: asthma mouse models with obvious pulmonary inflammation; test: Anti-inflammatory effect in asthma mouse models (eosinophilic granulocytes in alveolar lavage fluid, flow cytometry); assay type: in vivo, Balb/c mice; details: for Proportion of eosinophilic granulocytes (EOs): white blood cells of alveolar lavage fluid, day 39, negative control group 17.05
Description: Firstly, Kudinoside A solutions at different concentrations were prepared, and specific steps were as follows: • (1) Preparation of 15 mg/mL stock solution of the crystal form A of Kudinoside A: 0.50990 g of the crystal form A of Kudinoside A obtained in Example 1 was dissolved in 33.993 mL of propylene glycol under sonication to obtain about […] of 15 mg/mL stock solution of the crystal form A of Kudinoside A, which was stored at room temperature in the dark; • (2) Preparation of 1.5 mg/mL Kudinoside A solution: 2 mL of the 15 mg/mL stock solution of the crystal form A of Kudinoside A was measured out and diluted with 18 mL of 25% propylene glycol to obtain 20 mL of 1.5 mg/mL Kudinoside A solution, and the solution was freshly prepared before use. • (3) Preparation of 0.3 mg/mL Kudinoside A solution: 4 mL of the 1.5 mg/mL Kudinoside A solution was measured out and diluted with 16 mL of 32.5% propylene glycol to obtain 20 mL of 0.3 mg/mL Kudinoside A solution, and the solution was freshly prepared before use. • (4) Preparation of 0.06 mg/mL Kudinoside A solution: 3 mL of the 0.3 mg/mL Kudinoside A solution was measured out and diluted with 12 mL of 32.5% propylene glycol to obtain 15 mL of […] Kudinoside A solution, and the solution was freshly prepared before use.
Then, asthma mouse models with obvious pulmonary inflammation were constructed: 100 μL of 6 mg/mL chicken ovalbumin and 4 mg of aluminum hydroxide were injected intraperitoneally to Balb/c mice on day 1, 100 μL of 3.6 mg/mL chicken ovalbumin and 4 mg of aluminum hydroxide were injected on day 8, 100 μL of 1 mg/mL chicken ovalbumin and 4 mg of aluminum hydroxide were injected on day 15, and 6 mL of 2% chicken ovalbumin was administered by nebulization for exciting of 30 min every day from day 20 to day 23, thus constructing asthma mouse models with obvious pulmonary inflammation. For the mice in the blank control group, 100 μL of PBS was used instead of chicken ovalbumin.
Finally, the nebulization treatment was performed: from day 24, the Kudinoside A solutions at different concentrations (0.06 mg/mL, 0.3 mg/mL, and 1.5 mg/mL) were each administered by nebulization twice daily (30 min for each time, 12 mL in total) for treatment, and 6 mL of 2% chicken ovalbumin was administered by nebulization for exciting of 30 min 1 h after the nebulization treatment, and the administration and excitation were performed for 15 days according to this scheme; sampling was carried out 24 h after the last administration and excitation experiment, i.e., on day 39, and the Kudinoside A solution at the corresponding nebulization treatment concentration was administered twice (30 min for each time, 12 mL in total) for treatment before the sampling. The above was the scheme for the experimental groups of the nebulization treatment with Kudinoside A at different doses, and the mice in the negative control group were administered with 30% propylene glycol instead of Kudinoside A for nebulization.
Flow cytometry was adopted to detect proportion of eosinophilic granulocytes (EOs) in white blood cells of mouse alveolar lavage fluid samples. The blank group had 15 mice, the negative control group had 12 mice, and the high-, medium-, and low-concentration Kudinoside A experimental groups had 18 mice, 13 mice, and 14 mice, respectively.

[2] = Thermogravimetric analysis (TGA); assay type: physicochemical; details: 10 K/min, nitrogen
Text: Thermogravimetric analysis, or TGA for short, refers to a thermal analysis method for measuring the relationship of the mass of a sample to be detected with the change of temperature or time at a programmed temperature, and it is used to study information related to the quality of the sample, such as thermal stability, components of intermediate products possibly generated, etc. It is often used in combination with other thermal analysis methods for comprehensive thermal analysis. Methods for performing thermogravimetric analysis on the crystals are well known to those skilled in the art. In the present invention, the crystal forms A, C, and J of Kudinoside A are determined by using a thermogravimetric analyzer, and the specific measurement conditions are shown in Table 6.

[3] = Hygroscopicity test by dynamic vapor sorption (DVS); assay type: physicochemical; details: for weight change when the relative humidity is in the range of 0%-80% / hygroscopicity: DVS graph (FIGS. 1d, 2d, 3d); for hygroscopicity: judgment criteria of Table 7; for Increase in mass (relative humidity: 0%-80%) / Degree of hygroscopicity: DVS, 25° C., relative humidity 0%-80%; for Degree of hygroscopicity: criteria of Table 12
Description: Dynamic vapor sorption (DVS) is a test method for analyzing the moisture sorption performance of a sample and recording the moisture sorption isotherm, and it determines the stability of a compound by identifying its sorption capacity for moisture. Methods for performing dynamic vapor sorption analysis on the crystals are well known to those skilled in the art. In the present invention, the hygroscopicity of the crystal forms A, C, and J of Kudinoside A is determined by using a dynamic vapor sorption instrument, and the specific measurement conditions are shown in Table 7.
About 10 mg of each of the crystal forms A, C, and J obtained in Examples 1-3 was tested for its hygroscopicity using a dynamic vapor sorption (DVS) instrument (test conditions: a temperature of 25° C. and a relative humidity of 0%-80%), and the hygroscopicity of each crystal form was judged using the criteria shown in Table 12 below. For the steps and the judgment criteria of the hygroscopicity test, reference is made to the General Requirement 9103-Guidelines for Hygroscopicity in Pharmacopoeia of the People's Republic of China 2020 (Volume IV).

[4] = Conditions under which the crystal forms exist stably; assay type: physicochemical
[5] = assay type: physicochemical; details: uncovered, in the dark, 10 days; long-term (25±2° C., RH 65%±10%) and accelerated (40±2° C., RH 75%±10%) conditions
Description: 25 mg of the crystal form J was spread in a culture dish and left to stand, with the culture dish uncovered, in the dark for 10 days under long-term conditions (temperature: 25±2° C.; relative humidity: 65%±10%) and acceleration conditions (temperature: 40±2° C.; relative humidity: 75%±10%), and then the crystal form J was subjected to X-ray powder diffraction assay and thermogravimetric analysis. The X-ray powder diffractometer used and parameters thereof are shown in Table 4; the thermogravimetric analyzer used and parameters thereof are shown in Table 6.

Compound: 3β-12α-19α-trihydroxy-ursane-13(18)-ene-28,20β-lactone-3-O-[β-D-glucosyl-(1→3)-[α-L-rham nosyl-(1→2)]-α-L-arabinoside [Kudinoside A]
relaxation effect on bronchial smooth muscle (bronchial smooth muscle; 1 μM): no relaxation effect
relaxation effect on bronchial smooth muscle (bronchial smooth muscle; 3.2 μM, 10 μM, and 32 μM): relaxed to a certain degree
Average percentage of tension relaxation (bronchial smooth muscle; Concentration of Kudinoside A 1 μM): −3.57%
Average percentage of tension relaxation (bronchial smooth muscle; Concentration of Kudinoside A 3.2 μM): 21.40%
Average percentage of tension relaxation (bronchial smooth muscle; Concentration of Kudinoside A 10 μM): 42.93%
Average percentage of tension relaxation (bronchial smooth muscle; Concentration of Kudinoside A 32 μM): 50.09%
Proportion of eosinophilic granulocytes (EOs) ([1]; 0.06 mg/mL solution by nebulization twice daily): 10.14
Proportion of eosinophilic granulocytes (EOs) ([1]; 0.3 mg/mL solution by nebulization twice daily): 9.56
Proportion of eosinophilic granulocytes (EOs) ([1]; 1.5 mg/mL solution by nebulization twice daily): 10.81
anti-inflammatory effect (conclusion) ([1]; asthma mouse models): certain anti-inflammatory effects
proportion of eosinophilic granulocytes compared with the negative control group ([1]; each dose (0.06, 0.3, 1.5 mg/mL)): decreases

decomposition temperature [2]: about 315 °C
weight change when the relative humidity is in the range of 0%-80% [3]: about 1.8%
hygroscopicity [3]: slightly hygroscopic
Increase in mass (relative humidity: 0%-80%) [3]: 1.8%
Degree of hygroscopicity [3]: slightly hygroscopicity
Compound: C[C@@H]1O[C@@H](O[C@H]2[C@H](O[C@H]3CC[C@]4(C)[C@H]5C[C@H](O)C6=C7[C@]8(CC[C@](C)(OC8=O)[C@@]7(C)O)CC[C@@]6(C)[C@]5(C)CC[C@H]4C3(C)C)OC[C@H](O)[C@@H]2O[C@@H]2O[C@H](CO)[C@@H](O)[C@H](O)[C@H]2O)[C@H](O)[C@H](O)[C@H]1O [crystal form C, Kudinoside A]
Degree of hygroscopicity ([3]; listed as C): Slightly hygroscopic (The increase in mass is less than 2% but not less than 0.2%)
conditions under which the crystal form exists stably [4]: can exist stably as a dry powder at room temperature

decomposition temperature [2]: about 324 °C
weight change when the relative humidity is in the range of 0%-80% [3]: about 4.7%
hygroscopicity [3]: hygroscopic
Increase in mass (relative humidity: 0%-80%) [3]: 4.7%
Degree of hygroscopicity [3]: hygroscopic
characteristic peaks on the X-ray powder diffraction pattern (crystal form change) [5]: not changed
weight loss condition (TGA) [5]: not changed
Compound: C[C@@H]1O[C@@H](O[C@H]2[C@H](O[C@H]3CC[C@]4(C)[C@H]5C[C@H](O)C6=C7[C@]8(CC[C@](C)(OC8=O)[C@@]7(C)O)CC[C@@]6(C)[C@]5(C)CC[C@H]4C3(C)C)OC[C@H](O)[C@@H]2O[C@@H]2O[C@H](CO)[C@@H](O)[C@H](O)[C@H]2O)[C@H](O)[C@H](O)[C@H]1O [crystal form J, Kudinoside A]
Degree of hygroscopicity ([3]; listed as J): Hygroscopic (The increase in mass is less than 15% but not less than 2%)
conditions under which the crystal form exists stably [4]: can exist stably as a dry powder at room temperature
